Active and inactive are the calls of the source. The calls are words filed in the database; no cut-off is given here.
Tests used:
Hs 683 [1] = assay: Induction of apoptosis in human Hs 683 cells assessed as apoptotic cells at 2.5 uM incubated for 24 hrs by Annexin V-FITC/PI staining based flow cytometry analysis relative to control; format: functional
Hs 683 [2] = assay: Inhibition of sphere formation in human Hs 683 cells at 1 uM measured after 10 days in well containing 10000 cells by microscopic analysis; format: functional, cell-based; settings: time 10.0 day
U-251 [3] = assay: Inhibition of sphere formation in human U-251MG cells at 8 uM measured after 10 days in well containing 1 cells by microscopic analysis; format: functional, cell-based; settings: time 10.0 day
LN-229 [4] = assay: Inhibition of sphere formation in human LN-229 cells at 2 uM measured after 10 days in well containing 10 cells by microscopic analysis; format: functional, cell-based; settings: time 10.0 day
U-251 [5] = assay: Inhibition of sphere formation in human U-251MG cells at 2 uM measured after 10 days in well containing 10000 cells by microscopic analysis; format: functional, cell-based; settings: time 10.0 day
H4 [6] = assay: Inhibition of sphere formation in human H4 cells at 4 uM measured after 10 days in well containing 10 cells by microscopic analysis; format: functional, cell-based; settings: time 10.0 day
Hs 683 [7] = assay: Inhibition of colony formation in human Hs 683 cells assessed as reduction in colony area at 5 uM treated on day 1 and measured after 14 days by crystal violet staining based microscopic analysis relative to control; format: functional; settings: Hs 683, 336 h, time 14 day
[8] = biological target: T1, BUB3-interacting and GLEBS motif-containing protein ZNF207 (Homo sapiens, UniProt O43670); assay: Binding affinity to ZNF207 in human U-251MG cells assessed as thermal stabilization by measuring melting temperature at 30 uM incubated for 3 hrs by CETSA (reference value: 48.7 degreeC); format: cell-based
T1 sequence (O43670 whole entry): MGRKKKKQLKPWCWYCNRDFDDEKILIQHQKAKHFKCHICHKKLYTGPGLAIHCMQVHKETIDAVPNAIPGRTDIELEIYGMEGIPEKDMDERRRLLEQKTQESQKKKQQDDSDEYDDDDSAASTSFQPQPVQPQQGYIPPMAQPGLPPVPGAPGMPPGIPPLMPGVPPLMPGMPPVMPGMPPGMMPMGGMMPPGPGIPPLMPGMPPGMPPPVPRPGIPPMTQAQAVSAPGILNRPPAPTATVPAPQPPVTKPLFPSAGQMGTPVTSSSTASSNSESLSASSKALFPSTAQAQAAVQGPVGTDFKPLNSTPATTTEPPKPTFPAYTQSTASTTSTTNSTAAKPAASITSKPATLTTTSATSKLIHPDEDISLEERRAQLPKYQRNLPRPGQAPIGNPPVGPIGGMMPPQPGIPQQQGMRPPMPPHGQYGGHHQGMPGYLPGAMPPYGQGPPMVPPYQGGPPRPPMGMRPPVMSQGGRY

Hs 683 [9] = assay: Inhibition of sphere formation in human Hs 683 cells assessed as fold reduction in sphere initiating frequency at 8 uM incubated for 10 days by microscopic analysis relative to control; format: functional; settings: time 10 day
Hs 683 [10] = assay: Inhibition of sphere formation in human Hs 683 cells incubated for 168 hrs by microscopic analysis; format: functional, cell-based; settings: Hs 683, 168 h
[11] = Drug concentration in female Sprague-Dawley rat stomach at 45 mg/kg, po measured after 8 hrs by LC-MS/MS analysis; format: ADME, organism-based; settings: read-out: Ct
H4 [12] = assay: Inhibition of sphere formation in human H4 cells at 4 uM measured after 10 days in well containing 10000 cells by microscopic analysis; format: functional, cell-based; settings: time 10.0 day
LN-229 [13] = assay: Antitumor activity against human LN-229 cells xenografted in BALB/c nude mouse assessed as reduction in proportion of p-H3 positive cells at 150 mg/kg, ip administered twice a week and measured after 49 days by immunohistochemistry analysis; format: functional, organism-based; settings: time 49.0 day
LN-229 [14] = assay: Inhibition of sphere formation in human LN-229 cells at 4 uM measured after 10 days in well containing 10000 cells by microscopic analysis; format: functional, cell-based; settings: time 10.0 day
Hs 683 [15] = assay: Inhibition of sphere formation in human Hs 683 cells assessed as fold reduction in sphere initiating frequency at 1 uM incubated for 10 days by microscopic analysis relative to control; format: functional; settings: time 10 day
H4 [16] = assay: Inhibition of sphere formation in human H4 cells at 8 uM measured after 10 days in well containing 10000 cells by microscopic analysis; format: functional, cell-based; settings: time 10.0 day
[17] = Toxicity in male C57BL/6 mouse assessed as change in cellular structure of thymus at 45 mg/kg, po administered once a day for 2 weeks by H and E staining based analysis; format: organism-based; settings: in vivo, 336 h
Hs 683 [18] = assay: Inhibition of sphere formation in human Hs 683 cells at 8 uM measured after 10 days in well containing 10 cells by microscopic analysis; format: functional, cell-based; settings: time 10.0 day
LN-229 [19] = assay: Antitumor activity against human LN-229 cells xenografted in BALB/c nude mouse assessed as reduction in proportion of p-H3 positive cells at 15 to 45 mg/kg, po administered once a day and measured after 49 days by immunohistochemistry analysis; format: functional, organism-based; settings: dose 15-45 mg/kg, time 49.0 day
LN-229 [20] = assay: Inhibition of sphere formation in human LN-229 cells at 1 uM measured after 10 days in well containing 1 cells by microscopic analysis; format: functional, cell-based; settings: time 10.0 day
[21] = Drug concentration in female Sprague-Dawley rat spleen at 45 mg/kg, po measured after 8 hrs by LC-MS/MS analysis; format: ADME, organism-based; settings: read-out: Ct
U-251 [22] = assay: Inhibition of sphere formation in human U-251MG cells at 1 uM measured after 10 days in well containing 1 cells by microscopic analysis; format: functional, cell-based; settings: time 10.0 day
[23] = biological target: T1, BUB3-interacting and GLEBS motif-containing protein ZNF207; assay: Binding affinity to ZNF207 in human H4 cells assessed as thermal stabilization by measuring melting temperature at 30 uM incubated for 3 hrs by CETSA (reference value: 48.9 degreeC); format: cell-based
U-251 [24] = assay: Inhibition of colony formation in human U-251MG cells assessed as reduction in colony area at 2.5 uM treated on day 1 and measured after 14 days by crystal violet staining based microscopic analysis relative to control; format: functional; settings: U-251, 336 h, time 14 day
Hs 683 [25] = assay: Inhibition of sphere formation in human Hs 683 cells at 1 uM measured after 10 days in well containing 1000 cells by microscopic analysis; format: functional, cell-based; settings: time 10.0 day
Hs 683 [26] = assay: Induction of apoptosis in human Hs 683 cells at 1.25 uM incubated for 24 hrs by Annexin V-FITC/PI staining based flow cytometry analysis; format: functional, cell-based
[27] = Drug concentration in female Sprague-Dawley rat liver at 45 mg/kg, po measured after 8 hrs by LC-MS/MS analysis; format: ADME, organism-based; settings: read-out: Ct
LN-229 [28] = assay: Inhibition of sphere formation in human LN-229 cells assessed as fold reduction in sphere initiating frequency at 4 uM incubated for 10 days by microscopic analysis relative to control; format: functional; settings: time 10 day
LN-229 [29] = assay: Inhibition of sphere formation in human LN-229 cells at 8 uM measured after 10 days in well containing 100 cells by microscopic analysis; format: functional, cell-based; settings: time 10.0 day
U-251 [30] = assay: Inhibition of sphere formation in human U-251MG cells assessed as fold reduction in sphere initiating frequency at 1 uM incubated for 10 days by microscopic analysis relative to control; format: functional; settings: time 10 day
LN-229 [31] = assay: Inhibition of sphere formation in human LN-229 cells assessed as fold reduction in sphere initiating frequency at 8 uM incubated for 10 days by microscopic analysis relative to control; format: functional; settings: time 10 day
H4 [32] = assay: Inhibition of sphere formation in human H4 cells at 2 uM measured after 10 days in well containing 100 cells by microscopic analysis; format: functional, cell-based; settings: time 10.0 day
Hs 683 [33] = assay: Inhibition of sphere formation in human Hs 683 cells at 4 uM measured after 10 days in well containing 10000 cells by microscopic analysis; format: functional, cell-based; settings: time 10.0 day
U-251 [34] = assay: Inhibition of sphere formation in human U-251MG cells at 2 uM measured after 10 days in well containing 1 cells by microscopic analysis; format: functional, cell-based; settings: time 10.0 day
MDR1 = assay: Apparent permeability across apical to basolateral side in MDCKII-MDR1 cells assessed as drug recovery at 1 uM incubated for 2 hrs by LC-MS/MS analysis; format: ADME, cell-based, Canis lupus familiaris; settings: dog, MDCK-MDR1, read-out: Drug recovery
[35] = biological target: T1, BUB3-interacting and GLEBS motif-containing protein ZNF207; assay: Binding affinity to ZNF207 in human H4 cells assessed as thermal stabilization by measuring increase in melting temperature at 30 uM incubated for 3 hrs by CETSA; format: cell-based
HeLa = assay: Antiproliferative activity against human HeLa cells assessed as inhibition of cell growth incubated for 72 hrs by CCK-8 assay; format: functional, cell-based

N#CC1(C(=O)NCCC2CCN(Cc3ccccc3)CC2)CC2(Br)c3ccccc3C1c1ccccc12 (racemic)
Activity (Hs 683 [1]): ~20% | inhibition (Hs 683 [2]): inactive | inhibition (U-251 [3]): Active | inhibition (LN-229 [4]): Active | inhibition (U-251 [5]): inactive | inhibition (H4 [6]): Active | inhibition at 5 µM (Hs 683 [7]): 100% | Tm [8]: 53.9 °C | fold change (FC) (Hs 683 [9]): 104.96 | IC50 (Hs 683 [10]): 2.1 µM | concentration at 8 h [11]: 4370 ng/g | inhibition (H4 [12]): inactive | Activity (LN-229 [13]): Active | inhibition (LN-229 [14]): inactive | fold change (FC) (Hs 683 [15]): 2.8 | inhibition (H4 [16]): inactive | Activity [17]: Non-Toxic | inhibition (Hs 683 [18]): Active | Activity (LN-229 [19]): Active | inhibition (LN-229 [20]): Active | concentration at 8 h [21]: 2330 ng/g | inhibition (U-251 [22]): Active | Tm [23]: 50.8 °C | inhibition at 2.5 µM (U-251 [24]): 100% | inhibition (Hs 683 [25]): inactive | Activity (Hs 683 [26]): Active | concentration at 8 h [27]: 1400 ng/g | fold change (FC) (LN-229 [28]): 36.42 | inhibition (LN-229 [29]): Active | fold change (FC) (U-251 [30]): 2.78 | fold change (FC) (LN-229 [31]): 107.58 | inhibition (H4 [32]): Active | inhibition (Hs 683 [33]): inactive | inhibition (U-251 [34]): Active | recovery at 2 h, 1 µM (MDR1): 96% | ΔTm [35]: 1.9 °C | IC50 (HeLa): 8.13 µM

— ChEMBL document CHEMBL5528066, “Discovery of Novel N-(Anthracen-9-ylmethyl) Benzamide Derivatives as ZNF207 Inhibitors Promising in Treating Glioma” (J Med Chem, 2024)
